The values that follow are results of earlier work, collected in US8765197B2, “Extract of herbal and composition containing the same” (Dong-A-Pharm, Co., Ltd., priority 2006, dated 2014).

In the series the test system is functional dyspepsia.

Molecules are shown by their SMILES.

Consider `COc1cc(N)c(Cl)cc1C(=O)NC1CCN(CCCOc2ccc(F)cc2)CC1OC` (centres unmarked) [cisapride], for which the “cases in which effective” value (administered for 4 to 8 weeks) is recorded as “more than 70%”. Besides, the response rate (functional dyspepsia, placebo 27-53%) was 50-82%.
